These results are taken from patent US11596692B1 (Incyte Corporation, priority 2018, dated 2023).

The target of test [1] is PD-L1 (Homo sapiens (Human), UniProt Q9NZQ7). Put plainly: PD-L1 surface levels on HEK293T STING reporter cells, high PD-L1. The test is classed as cell-based. Here is the method:
To determine PD-L1 expression on HEK cells after treatment of PD-L1-small molecule conjugated STING agonists, cells were harvested at 20 hours post-treatment. Single cell suspensions were then stained with phycoerythrin-conjugated anti-PD-L1 antibody (BD Bioscience), and the PD-L1 expression were then analyzed by flow cytometry. Mean fluorescence intensity was used as the relative level of surface PD-L1 expression on cells (FIG. 1 and Table 6).
Also, cells were stained with PE-conjugated anti-human PD-L1 antibody to determine surface PD-L1 expression. Cell acquisition was performed on BD LSRFortessa X-20 (BD Biosciences). Data was analyzed using FlowJo software. IC50 values were calculated using Prism Software.

The test system of test [2] is IRF3 activation in PD-L1 high HEK293T STING reporter cell line. The test is described as follows: IRF3 activation in HEK293T STING reporter cells, high PD-L1. The test is classed as cell-based, human. The settings on record: high PD-L1 cells, 20 hours; read-out: IRF Activation EC50 (nM), High PD-L1. How it is done:
(§1) HEK293T STING reporter cell line was purchased from Invivogen and expressed low level of PD-L1. This cell line was then engineered at Incyte Research Institute to overexpress human PD-L1. Both PD-L1 high and PD-L1 low HEK293T cell lines were plated at 100,000 cells/100 μL/well in 10% fetal calf serum-containing DMEM culture medium in a 96-well flat bottom plate. Serial dilutions of PD-L1 small molecule-conjugated STING agonists were then added to the corresponding wells, and incubated for 20 hours at 37° C. In a competition study setting, 1 μM of a PD-L1 small molecule was added in the corresponding wells to compete with the binding of PD-L1 small molecule-conjugated STING agonists. At the end of the incubation, the culture supernatants were carefully removed from each well, and the amount of IRF3 activation was determined by adding Quanti-Blue substrate in accordance with the manufacturer's protocol.
(§2) 293T-Dual hSTING-R232 (ISG/KI-IFNb) cells that were generated from 293T-Dual Null (ISG/KI-IFNb) cells by stable transfection of the R232 isoform of human STING were purchased from Invivogen (Invivogen #293d-r232).
(§3) This cell line expresses an ISRE-inducible SEAP (secreted embryonic alkaline phosphatase) reporter construct, which monitors the activation of interferon regulatory factor (IRF) and its binding to ISRE (IFN-stimulated response elements). These reporter cells express low level of PD-L1. Human PD-L1 was then overexpressed in these cells through stable transfection.
(§4) These 293T-Dual hSTING-R232 reporter cells as well as293T-Dual hSTING-R232 reporter cells overexpressing huPD-L1 were treated with various concentrations of STING compounds for 20 hours. After 20 hours, interferon regulatory factor (IRF) activity was assessed by measuring SEAP levels in the supernatant using QUNTI-Blue. EC50 values were generated by curve fit in Prism software.

In test [3] the test system is IRF3 activation in PD-L1 low HEK293T STING reporter cell line. The test is described as follows: IRF3 activation in HEK293T STING reporter cells, low PD-L1. The settings on record: 20 hours, read-out: IRF Activation EC50 (nM), Low PD-L1. Type of test: cell-based, human. Here is the method:
as §1, §2, §3, §4

Where two headings read alike, the source gives them in different places.

PD-L1, sequence (Q9NZQ7 19-290): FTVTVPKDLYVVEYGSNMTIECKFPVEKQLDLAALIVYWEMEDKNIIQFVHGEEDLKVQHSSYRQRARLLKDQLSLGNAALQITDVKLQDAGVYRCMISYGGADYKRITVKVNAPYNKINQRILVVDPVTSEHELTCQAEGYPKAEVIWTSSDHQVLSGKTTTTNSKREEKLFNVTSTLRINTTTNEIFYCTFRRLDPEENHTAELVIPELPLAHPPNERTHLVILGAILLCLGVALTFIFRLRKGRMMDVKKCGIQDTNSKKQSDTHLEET

On to `CCn1nc(C)cc1C(=O)Nc1nc2cc(C(N)=O)cc(OCCCNC(=O)CCNC(=O)OCc3ccc(NC(=O)[C@H](CCCNC(N)=O)NC(=O)[C@@H](NC(=O)Cn4cc(CCNC(=O)[C@H](CC(=O)O)NC(=O)[C@H](CC(=O)O)NC(=O)[C@H](CCCNC(=N)N)NC(=O)[C@H](CC(=O)O)NC(=O)CCCN5CCc6c(nc(C(=O)Nc7cccc(-c8cccc(NC(=O)c9nc%10c(n9C)CCN(CCCC(=O)O)C%10)c8Cl)c7Cl)n6C)C5)nn4)C(C)C)cc3)c2n1C/C=C/Cn1c2nc(-c3cc(C)nn3CC)ncc2c2cc(C(N)=O)cc(OC)c21` [Example 9], for which, in test [1], the IC50 is 50 to 200 nM. For the same compound, the 50% effective concentration (EC50) was under 50 nM in test [2] and 200 to 1000 nM in test [3].
Take `CCn1nc(C)cc1C(=O)Nc1nc2cc(C(N)=O)cc(OC)c2n1C/C=C/Cn1c(NC(=O)c2cc(C)nn2CC)nc2cc(C(N)=O)cc(OCCCNC(=O)[C@H](CC(=O)O)NC(=O)[C@H](CC(=O)O)NC(=O)CCCN3CCc4c(nc(C(=O)Nc5cccc(-c6cccc(NC(=O)c7nc8c(n7C)CCN(CCCC(=O)O)C8)c6Cl)c5Cl)n4C)C3)c21` [Example 10]: in test [1] (high PD-L1 cells, 20 hours, read-out: PD-L1 Internalization IC50 (nM), High PD-L1), the IC50 is under 50 nM. The 50% effective concentration (EC50) is under 50 nM in test [2] and 50 to 200 nM in test [3].
Compound `CCn1nc(C)cc1C(=O)Nc1nc2cc(C(N)=O)cc(OC)c2n1C/C=C/Cn1c(NC(=O)c2cc(C)nn2CC)nc2cc(C(N)=O)cc(OCCCNC(=O)[C@H](CC(=O)O)NC(=O)[C@H](CC(=O)O)NC(=O)[C@H](CC(=O)O)NC(=O)[C@H](CC(=O)O)NC(=O)[C@H](CC(=O)O)NC(=O)CCCN3CCc4c(nc(C(=O)Nc5cccc(-c6cccc(NC(=O)c7nc8c(n7C)CCN(CCCC(=O)O)C8)c6Cl)c5Cl)n4C)C3)c21` [Example 13] registered an IC50 in test [1] of under 50 nM. In addition, the EC50 in test [2] was under 50 nM; in test [3], 50 to 200 nM.
As to `CCn1nc(C)cc1C(=O)Nc1nc2cc(C(N)=O)cc(OC)c2n1C/C=C/Cn1c(NC(=O)c2cc(C)nn2CC)nc2cc(C(N)=O)cc(OCCCNC(=O)[C@H](CC(=O)O)NC(=O)[C@H](CC(=O)O)NC(=O)[C@H](CC(=O)O)NC(=O)[C@H](CC(=O)O)NC(=O)[C@H](CC(=O)O)NC(=O)[C@H](CC(=O)O)NC(=O)[C@H](CC(=O)O)NC(=O)CCCN3CCc4c(nc(C(=O)Nc5cccc(-c6cccc(NC(=O)c7nc8c(n7C)CCN(CCCC(=O)O)C8)c6Cl)c5Cl)n4C)C3)c21` [Example 14], the IC50 in test [1] is under 50 nM. Also, the half-maximal effective concentration (EC50) in test [2] was under 50 nM; in test [3] it was 50 to 200 nM.
In the case of `CCn1nc(C)cc1C(=O)Nc1nc2cc(C(N)=O)cc(OC)c2n1C/C=C/Cn1c(NC(=O)c2cc(C)nn2CC)nc2cc(C(N)=O)cc(OCCCNC(=O)[C@H](CC(=O)O)NC(=O)[C@H](CC(=O)O)NC(=O)[C@H](CCCNC(=N)N)NC(=O)[C@H](CC(=O)O)NC(=O)[C@H](CC(=O)O)NC(=O)[C@H](CC(=O)O)NC(=O)[C@H](CCCNC(=N)N)NC(=O)[C@H](CC(=O)O)NC(=O)CCCN3CCc4c(nc(C(=O)Nc5cccc(-c6cccc(NC(=O)c7nc8c(n7C)CCN(CCCC(=O)O)C8)c6Cl)c5Cl)n4C)C3)c21` [Example 15], the IC50 in test [1] was under 50 nM. In addition, the EC50 in test [2] was under 50 nM; in test [3], 50 to 200 nM.
As for `CCn1nc(C)cc1C(=O)Nc1nc2cc(C(N)=O)cc(OC)c2n1C/C=C/Cn1c(NC(=O)c2cc(C)nn2CC)nc2cc(C(N)=O)cc(OCCCNC(=O)[C@H](CC(=O)O)NC(=O)[C@H](CCCNC(=N)N)NC(=O)[C@H](CC(=O)O)NC(=O)[C@H](CC(=O)O)NC(=O)CCCN3CCc4c(nc(C(=O)Nc5cccc(-c6cccc(NC(=O)c7nc8c(n7C)CCN(CCCC(=O)O)C8)c6Cl)c5Cl)n4C)C3)c21` [Example 16], in test [1], the IC50 is under 50 nM. The EC50 in test [2] and in test [3] was under 50 nM in each case.
Turning to `CCn1nc(C)cc1C(=O)Nc1nc2cc(C(N)=O)cc(OC)c2n1C/C=C/Cn1c(NC(=O)c2cc(C)nn2CC)nc2cc(C(N)=O)cc(OCCCNC(=O)[C@H](CC(=O)O)NC(=O)[C@H](CC(=O)O)NC(=O)[C@H](CC(=O)O)NC(=O)[C@H](CCCNC(=N)N)NC(=O)CCCN3CCc4c(nc(C(=O)Nc5cccc(-c6cccc(NC(=O)c7nc8c(n7C)CCN(CCCC(=O)O)C8)c6Cl)c5Cl)n4C)C3)c21` [Example 17], the IC50 in test [1] is under 50 nM. Besides, the figures for the EC50 in test [2] and in test [3] were under 50 nM and 50 to 200 nM, respectively.
In test [1], `CCn1nc(C)cc1C(=O)Nc1nc2cc(C(N)=O)cc(OC)c2n1C/C=C/Cn1c(NC(=O)c2cc(C)nn2CC)nc2cc(C(N)=O)cc(OCCCNC(=O)[C@H](CC(=O)O)NC(=O)[C@H](CC(=O)O)NC(=O)[C@H](CCCCN)NC(=O)[C@H](CC(=O)O)NC(=O)CCCN3CCc4c(nc(C(=O)Nc5cccc(-c6cccc(NC(=O)c7nc8c(n7C)CCN(CCCC(=O)O)C8)c6Cl)c5Cl)n4C)C3)c21` [Example 18] had an IC50 of under 50 nM. Further, the EC50 in test [2] and in test [3] was under 50 nM each time.
Consider `CCn1nc(C)cc1C(=O)Nc1nc2cc(C(N)=O)cc(OC)c2n1C/C=C/Cn1c(NC(=O)c2cc(C)nn2CC)nc2cc(C(N)=O)cc(OCCCNC(=O)[C@H](CCC(=O)O)NC(=O)[C@H](CCC(=O)O)NC(=O)[C@H](CCCNC(=N)N)NC(=O)[C@H](CCC(=O)O)NC(=O)CCCN3CCc4c(nc(C(=O)Nc5cccc(-c6cccc(NC(=O)c7nc8c(n7C)CCN(CCCC(=O)O)C8)c6Cl)c5Cl)n4C)C3)c21` [Example 19], for which, in test [1], the IC50 is under 50 nM. Moreover, the EC50 was under 50 nM in test [2] and 50 to 200 nM in test [3].
Regarding `CCn1nc(C)cc1C(=O)Nc1nc2cc(C(N)=O)cc(OC)c2n1C/C=C/Cn1c(NC(=O)c2cc(C)nn2CC)nc2cc(C(N)=O)cc(OCCCNC(=O)[C@@H](NC(=O)[C@H](CC(=O)O)NC(=O)[C@H](CC(=O)O)NC(=O)[C@H](CCCNC(=N)N)NC(=O)[C@H](CC(=O)O)NC(=O)CCCN3CCc4c(nc(C(=O)Nc5cccc(-c6cccc(NC(=O)c7nc8c(n7C)CCN(CCCC(=O)O)C8)c6Cl)c5Cl)n4C)C3)C(C)(C)C)c21` [Example 20], in test [1], the IC50 is under 50 nM. Further, the half-maximal effective concentration (EC50) in test [2] is under 50 nM; in test [3] it was 50 to 200 nM.
In test [1], `CCn1nc(C)cc1C(=O)Nc1nc2cc(C(N)=O)cc(OCCCNC(=O)[C@H](CC(=O)O)NC(=O)[C@H](CC(=O)O)NC(=O)[C@H](CCCNC(N)=O)NC(=O)[C@H](CC(=O)O)NC(=O)CCCN3CCc4c(nc(C(=O)Nc5cccc(-c6cccc(NC(=O)c7nc8c(n7C)CCN(CCCC(=O)O)C8)c6Cl)c5Cl)n4C)C3)c2n1C/C=C/Cn1c2nc(-c3cc(C)nn3CC)ncc2c2cc(C(N)=O)cc(OC)c21` [Example 21] displayed an IC50 of under 50 nM. Besides, the EC50 in test [2] is under 50 nM; in test [3], 50 to 200 nM.
Compound `CCn1nc(C)cc1C(=O)Nc1nc2cc(C(N)=O)cc(OCCCNC(=O)[C@H](CC(=O)O)NC(=O)[C@H](CC(=O)O)NC(=O)[C@H](CCCNC(=N)N)NC(=O)[C@H](CC(=O)O)NC(=O)[C@H](CC(=O)O)NC(=O)[C@H](CC(=O)O)NC(=O)[C@H](CCCNC(=N)N)NC(=O)[C@H](CC(=O)O)NC(=O)CCCN3CCc4c(nc(C(=O)Nc5cccc(-c6cccc(NC(=O)c7nc8c(n7C)CCN(CCCC(=O)O)C8)c6Cl)c5Cl)n4C)C3)c2n1C/C=C/Cn1c2nc(-c3cc(C)nn3CC)ncc2c2cc(C(N)=O)cc(OC)c21` [Example 22] yielded an IC50 in test [1] of under 50 nM. The EC50 in test [2] and in test [3] was under 50 nM throughout.
As for `CCn1nc(C)cc1C(=O)Nc1nc2cc(C(N)=O)cc(OCCCNC(=O)[C@H](CC(=O)O)NC(=O)[C@H](CC(=O)O)NC(=O)[C@H](CCCNC(=N)N)NC(=O)[C@H](CC(=O)O)NC(=O)CCCN3CCc4c(nc(C(=O)Nc5cccc(-c6cccc(NC(=O)c7nc8c(n7C)CCN(CCCC(=O)O)C8)c6Cl)c5Cl)n4C)C3)c2n1C/C=C/Cn1c2nc(-c3cc(C)nn3CC)ncc2c2cc(C(N)=O)cc(OCCCOC)c21` [Example 23], in test [1], the IC50 was under 50 nM. Moreover, the EC50 in test [2] is under 50 nM; in test [3], 50 to 200 nM.
As to `CCn1nc(C)cc1C(=O)Nc1nc2cc(C(N)=O)cc(OCCCNC(=O)OCCNC(=O)[C@H](CC(=O)O)NC(=O)[C@H](CC(=O)O)NC(=O)[C@H](CCCNC(=N)N)NC(=O)[C@H](CC(=O)O)NC(=O)CCCN3CCc4c(nc(C(=O)Nc5cccc(-c6cccc(NC(=O)c7nc8c(n7C)CCN(CCCC(=O)O)C8)c6Cl)c5Cl)n4C)C3)c2n1C/C=C/Cn1c2nc(-c3cc(C)nn3CC)ncc2c2cc(C(N)=O)cc(OC)c21` [Example 24], the IC50 in test [1] was under 50 nM. Also, the EC50 in test [2] and in test [3] was under 50 nM throughout.
